# Assay results: patent US12109294B2, “Oily moisturizer and topical skin composition containing same” (The Nisshin OilliO Group, Ltd., priority 2018, dated 2024)
# Tested on: skin stratum corneum (forearm)
# Test: Evaluation test of moisture retention effect upon single application of esterified product (stratum corneum moisture content, SKICON-200)
# Type: in vivo, human
# Source text: The moisture content of the stratum corneum can be investigated using the electrical conductivity (μS) of the stratum corneum. The electrical conductivity (μS) of the stratum corneum is dependent on the water content of the stratum corneum, and the greater the moisture content of the stratum corneum, the larger the electrical conductivity (μS) of the stratum corneum becomes. The electrical conductivity (μS) of the stratum corneum can be measured by a constant-pressure sensor probe contact high-frequency conductance exchange method. Specifically, the electrical conductivity (μS) of the stratum corneum can be measured by using a stratum corneum moisture content measuring device based on the above measurement method, such as a stratum comeum moisture content measuring device “SKICON-200” manufactured by IBS Co., Ltd.
# After maintaining the state with the oily moisturizer applied to the skin for a certain period, for example 30 to 90 minutes, the oily moisturizer is removed from the skin surface. […] Using the obtained values for the electrical conductivity (uS) of the stratum corneum before and after application of the oily moisturizer, the moisture retention effect value is calculated and the moisture retention effect is evaluated. […]
# Subsequently, 40 μL of the test sample being evaluated was applied uniformly to the square measurement region of the forearm. […]
structure (smiles),measurement,setting,value
OCC(O)CO [glycerol],Increase in the electrical conductivity that corresponds with the moisture retention effect value,"60 minutes after application, still applied to the skin surface, prior to removal using water",477 μS
same,Moisture retention effect value,"single application, removal with cotton swab immersed in water rather than hexane",8 μS
